Measurements: patent US11857601B2, “Pharmaceutical composition for cancer treatment comprising fusion protein including IL-2 protein and CD80 protein and anticancer drug” (GI INNOVATION, INC., priority 2020, dated 2024)

Tests used:
MDA-MB-231 cells = test: Cancer cell killing, GI-101 and Ribociclib, MDA-MB-231 with PBMCs; type: cell-based, human; conditions: GI-101 100 nM, Ribociclib 913 nM, 24 hours, compared with co-culturing only cancer cells and PBMCs
Excerpt: This experiment was to evaluate the effect of killing cancer cells by treating MDA-MB-231 cells (human breast cancer cells) with the test substance GI-101 alone or in combination with Ribociclib substance in an in vitro environment.
MDA-MB-231 cells were purchased from the Korea cell line bank and cultured in RPMI1640 medium (Gibco) containing 10% FBS (Gibco) and 1% antibiotic/antifungal agent (Gibco). For use in cancer cell killing test, the cells were harvested using trypsin (Gibco), and then suspended in RPMI1640 medium, and then dead cells and debris were removed using Ficoll (GE Healthcare Life Sciences) solution. The cells suspended in RPMI1640 medium were carefully layered on ficoll solution. […]
In order to identify the effect of killing the cells, a CytoTox Green reagent ([…]™ CytoTox Green, Satorius) that binds to the DNA of cells to be killed was prepared in 1 μl per 1 mL of RPMI1640 medium containing 5% human AB serum (Sigma). The prepared medium was used for dilution of the test substance, and the effect of killing the cells could be quantitatively identified by staining the cells to be killed when the test substance was co-cultured with cancer cell lines and PBMCs. […]

[1] = system: immune cells in cancer tissues; test: Immune cell analysis in CT-26 cancer tissue (FACS); type: in vivo, BALB/c mice
Excerpt: The mice of each group in Experimental Example 16.1 were sacrificed when the tumor volume reached an average of 200 mm^3, and cancer tissues were collected.

4T1 cells = test: mGI-101 and Abemaciclib in 4T1 allotransplanted tumor model; type: in vivo, BALB/c mice; conditions: 11 mice per group
Description: 4T1 cells were purchased from ATCC (USA) and cultured in RPMI1640 medium (Gibco) containing 10% FBS (Gibco) and 1% antibiotic/antifungal agent (Gibco). The cultured cells were harvested using trypsin (Gibco) and then suspended in PBS. In order to establish an allotransplanted tumor model, 1×10^5 of 4T1 cells were subcutaneously injected into the back of BALB/c female mice (8-week-old).
A certain period of time after cell inoculation of the tumor grafts of the mice, the tumor volume was measured for animals with no abnormalities in the health condition of the animals, and the mice were randomly selected and assigned, each group including 11 mice.
The death of the mouse, the type of general symptoms, the date of onset, and the severity of symptoms were observed once a day during the test period, and recorded for each subject.
The tumor volume before administration of each subject was set as the value measured at the time of grouping, and the anti-tumor efficacy was evaluated as compared with the vehicle control.
All statistical calculations were performed using Prism 8.0 (Graph Pad Software Inc, USA). The comparison of tumor volume measurements was made through two-way analysis of variance followed by Tukey's multiple comparison test. A p value of less than 0.05 was considered significant.

MC38 cells = test: mGI-101 and DMXAA in MC38 allotransplanted tumor model; type: in vivo, C57BL/6 mice; conditions: day 60 after tumor injection; mGI-101 6 mg/kg i.p. BIW, DMXAA 450 μg I.T.; 5 mice per group
Description: In order to establish an allotransplanted tumor model, 5×10^5 of MC38 cells were subcutaneously injected into C57BL/6 mice. The tumor grafts of the mice were identified to be a size of 100-200 mm^3 about day 10 after cell inoculation, and the mice were assigned, each group including 5 mice.
The size of the MC38 solid cancer was measured three times a week during the observation period, and the major axis (maximum length, L) and minor axis (perpendicular width, W) of the tumor were measured using a caliper, and the tumor volume (TV) was calculated by substituting them into the following equation, and once the tumor size was no less than 2 cm, the mice were sacrificed. TV (mm^3)=(W^2×L)/2 [Equation 1]

GI101: fusion protein: human CD80 fragment, Ig hinge, Fc domain, linker, IL-2 variant (2M) (R38A, F42A); SEQ ID NO: 9
effect of killing cancer cells (MDA-MB-231 cells): co-culturing only cancer cells and PBMCs, the effect of killing cancer cells was identified, and tended to be higher than that of treatment with GI-101 alone | CD8+ T cells in cancer tissue ([1]; 0.1 mg/kg, compared with anti-PD-1 antibody alone 5 mg/kg): significant increase | M1 macrophages ([1]; 0.1 mg/kg, vs negative control and anti-PD-1 antibody alone): increase | level of CD86 expression in macrophages and dendritic cells ([1]; all GI101 groups): increased level | level of expression of IFN-γ in T cells ([1]; all GI101 groups, vs negative control): significantly increased level

mGI101: fusion protein: mouse CD80, Ig hinge, Fc domain, linker, IL-2 variant (2M) (R38A, F42A); SEQ ID NO: 15
number of mice with tumor growth inhibition rate of 30% or more (4T1 cells): 3 mice | number of mice with tumor growth inhibition rate of 50% or more (4T1 cells): 1 mice | number of mice with tumor growth inhibition rate of 80% or more (4T1 cells): no mouse | survival rate (MC38 cells): 20%
